The target of test [1] is T1, CRTH2 (Homo sapiens, UniProt Q9Y5Y4).
T1 construct: host or cells: CHO-K1
T1 sequence (Q9Y5Y4 1-395): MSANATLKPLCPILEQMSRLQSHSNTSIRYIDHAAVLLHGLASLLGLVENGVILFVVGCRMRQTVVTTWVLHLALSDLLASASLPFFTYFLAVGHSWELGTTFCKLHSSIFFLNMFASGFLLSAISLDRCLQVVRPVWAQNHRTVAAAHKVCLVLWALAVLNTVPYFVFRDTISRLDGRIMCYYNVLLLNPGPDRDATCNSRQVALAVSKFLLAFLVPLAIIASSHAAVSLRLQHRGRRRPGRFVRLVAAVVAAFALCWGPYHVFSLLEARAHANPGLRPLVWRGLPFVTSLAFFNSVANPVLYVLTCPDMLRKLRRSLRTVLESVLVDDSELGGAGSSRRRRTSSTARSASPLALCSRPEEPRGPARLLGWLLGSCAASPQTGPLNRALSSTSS
The test is described as follows: MDS Prostanoid CRTH2 Binding Assay (Catalog #268030), radioligand binding. Conditions: 20 nM of tested compound; ligand 1 nM [3H]PGD2; human recombinant CHO-K1 cells; 2 hours @ 25° C. Here is the method:
The CRTH2 binding affinity of compounds of Formula I were assayed by MDS Pharma Service using the following reagents and conditions:
• MDS Prostanoid CRTH2 Binding Assay (Catalog #268030): • Source: Human recombinant CHO-K1 cells • Ligand: 1 nM [^3H]

Test [2] deals with T1, CRTH2. Conditions: radioligand [3H] Prostaglandin D2; historical value of the MDS assay; cited from earlier work.

The values below come from patent US8772312B2, “Heterocyclic compounds as CRTH2 receptor antagonists” (CSPC Zhongqi Pharmaceutical Technology (Shijiazhuang) Co., …, priority 2007, dated 2014).

Structures are written as SMILES.

Regarding `CN(C1CCc2c(CC(=O)O)c3cccnc3n2C1)S(=O)(=O)c1ccc(F)cc1` (single isomer, unassigned) [Example 4A], the “% inhibition of PGD2 binding” value on CRTH2 [1] stood at 91%. Turning to `CCCCC[C@H](O)/C=C/[C@H]1C(=O)C[C@H](O)[C@@H]1C/C=C\CCCC(=O)O` [PGD2, Prostaglandin D2], the Kd on CRTH2 [2] is 4.1 nM. As for `CN(C1CCc2c(CC(=O)O)c3ccc(Cl)nc3n2C1)S(=O)(=O)c1ccc(F)cc1` (single isomer, unassigned) [Example 2A], on CRTH2 [1], the “% inhibition of PGD2 binding” value was 97%. For `CN(C1CCc2c(CC(=O)O)c3ccc(Cl)nc3n2C1)S(=O)(=O)c1ccc(F)cc1` (single isomer, unassigned) [Example 2B], the “% inhibition of PGD2 binding” value at CRTH2 [1] was 0%. On the same count and under the same terms, under `CN(C1CCc2c(CC(=O)O)c3cccnc3n2C1)S(=O)(=O)c1ccc(F)cc1` (single isomer, unassigned) [Example 4B] stands 0%.

As a reminder, the Kd is a measure of binding affinity in units of concentration.
